Reference: PubChem BioAssay AID248 (DTP/NCI, 2004)
Where “and” joins values, the source holds several entries; their conditions need not be identical. Identical values can stand only once. Inconclusive results and toxic doses are left out. Cut-off read from the data, not from the text of the source: active = T/C of 150% or more; inactive = T/C below 125%.

Test system: L1210 leukemia ip in BDF1 mice, survival T/C
Test: NCI In Vivo Anticancer Drug Screen. Data for tumor model L1210 Leukemia (intraperitoneal) in B6D2F1 (BDF1) mice
Conditions: endpoint: mean survival time, higher = longer survival
Outline: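 Read-out is survival time, reported as the treated-group measurement over the vehicle-control measurement.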

[1] = dose: 100.0 mg/kg/injection, schedule: Q01DX009 (ip), vehicle: Klucel (hydroxypropylcellulose) (HPC)
[2] = dose: 200.0 mg/kg/injection, schedule: Q01DX009 (ip), vehicle: Klucel (hydroxypropylcellulose) (HPC)
[3] = dose: 100.0 mg/kg/injection, schedule: Q01DX001 (ip), vehicle: carboxymethylcellulose (CMC)
[4] = dose: 100.0 mg/kg/injection, schedule: Q01DX009 (ip), vehicle: saline with Tween-80
[5] = dose: 200.0 mg/kg/injection, schedule: Q01DX009 (ip), vehicle: saline with Tween-80
[6] = dose: 100.0 mg/kg/injection, schedule: Q01DX009 (ip), vehicle: saline
[7] = dose: 100.0 mg/kg/injection, schedule: Q04DX003 (ip), vehicle: saline
[8] = dose: 200.0 mg/kg/injection, schedule: Q01DX009 (ip), vehicle: saline
[9] = dose: 200.0 mg/kg/injection, schedule: Q04DX003 (ip), vehicle: saline
[10] = dose: 400.0 mg/kg/injection, schedule: Q01DX009 (ip), vehicle: saline
[11] = dose: 400.0 mg/kg/injection, schedule: Q04DX003 (ip), vehicle: saline
[12] = dose: 100.0 mg/kg/injection, schedule: Q04DX003 (ip), vehicle: Klucel (hydroxypropylcellulose) (HPC)
[13] = dose: 200.0 mg/kg/injection, schedule: Q04DX003 (ip), vehicle: Klucel (hydroxypropylcellulose) (HPC)
[14] = dose: 400.0 mg/kg/injection, schedule: Q04DX003 (ip), vehicle: Klucel (hydroxypropylcellulose) (HPC)
[15] = dose: 200.0 mg/kg/injection, schedule: Q01DX001 (ip), vehicle: carboxymethylcellulose (CMC)
[16] = dose: 400.0 mg/kg/injection, schedule: Q01DX001 (ip), vehicle: carboxymethylcellulose (CMC)

Measured: T/C

COc1ccc(OC)c(NC(=O)Nc2cc(Cl)ccc2C)c1
inactive: [1] 89 % of control | [2] 93 % of control

COc1ccc(N)c(CC2c3ccccc3CCN2C)c1 (configuration not stated)
inactive: dose: 10.0 mg/kg/injection, schedule: Q01DX001 (ip), vehicle: carboxymethylcellulose (CMC) 103 % of control | dose: 20.0 mg/kg/injection, schedule: Q01DX001 (ip), vehicle: carboxymethylcellulose (CMC) 105 % of control | dose: 40.0 mg/kg/injection, schedule: Q01DX001 (ip), vehicle: carboxymethylcellulose (CMC) 105 % of control | dose: 80.0 mg/kg/injection, schedule: Q01DX001 (ip), vehicle: carboxymethylcellulose (CMC) 100 % of control | [3] 96 % of control

CCCCNC(=O)Nc1cccc(C(F)(F)F)c1
inactive: dose: 50.0 mg/kg/injection, schedule: Q01DX001 (sc), vehicle: carboxymethylcellulose (CMC) 106 % of control | dose: 100.0 mg/kg/injection, schedule: Q01DX001 (sc), vehicle: carboxymethylcellulose (CMC) 104 % of control | dose: 200.0 mg/kg/injection, schedule: Q01DX001 (sc), vehicle: carboxymethylcellulose (CMC) 104 % of control | dose: 400.0 mg/kg/injection, schedule: Q01DX001 (sc), vehicle: carboxymethylcellulose (CMC) 101 % of control

O=C1CCCCC/C1=C1\C(=O)Nc2ccc(Br)cc21
inactive: [4] 107 % of control | dose: 100.0 mg/kg/injection, schedule: Q04DX002 (ip), vehicle: saline with Tween-80 105 % of control | [5] 100 % of control | dose: 200.0 mg/kg/injection, schedule: Q04DX002 (ip), vehicle: saline with Tween-80 105 % of control | dose: 400.0 mg/kg/injection, schedule: Q01DX009 (ip), vehicle: saline with Tween-80 93 % of control | dose: 400.0 mg/kg/injection, schedule: Q04DX002 (ip), vehicle: saline with Tween-80 97 % of control

O=C(O)C1CCC[N-]C1.O=C(O)C1CCC[N-]C1.O=C(O)C1CCC[N-]C1.O=C(O)C1CCC[N-]C1.[Cl][Rh][Cl] (configuration not stated)
inactive: [6] 104 % of control | [7] 96 % of control | [8] 104 % of control | [9] 102 % of control | [10] 90 % of control | [11] 96 % of control

O=C(N/N=C\c1cc(Cl)cc(Cl)c1O)c1cccnc1
inactive: [1] 100 % of control | [2] 89 % of control

C1CCC(CCCC(CCCC2CCCC2)CCCC2CCCC2)C1
inactive: dose: 100.0 mg/kg/injection, schedule: Q01DX001 (ip), vehicle: saline with Tween-80 93 % of control | dose: 200.0 mg/kg/injection, schedule: Q01DX001 (ip), vehicle: saline with Tween-80 93 % of control | dose: 400.0 mg/kg/injection, schedule: Q01DX001 (ip), vehicle: saline with Tween-80 89 % of control

COc1cc2c3c(c1)-c1nc4ccccc4cc1CN3CCC2
inactive: dose: 100.0 mg/kg/injection, schedule: Q01DX009 (ip), vehicle: other 102 % of control | dose: 100.0 mg/kg/injection, schedule: Q04DX003 (ip), vehicle: other 97 % of control | dose: 200.0 mg/kg/injection, schedule: Q01DX009 (ip), vehicle: other 102 % of control | dose: 200.0 mg/kg/injection, schedule: Q04DX003 (ip), vehicle: other 100 % of control | dose: 400.0 mg/kg/injection, schedule: Q01DX009 (ip), vehicle: other 114 % of control | dose: 400.0 mg/kg/injection, schedule: Q04DX003 (ip), vehicle: other 97 % of control

Cc1cc(N=Nc2ccc(N(C)C)cc2)cc(C)[n+]1[O-]
inactive: [1] 104 % of control | [12] 100 % of control | [2] 98 % of control | [13] 95 % of control | [14] 88 % of control

C=COCCCCCCCCCCCCCCCCCC
inactive: dose: 100.0 mg/kg/injection, schedule: Q01DX001 (ip), vehicle: other 95 % of control | dose: 200.0 mg/kg/injection, schedule: Q01DX001 (ip), vehicle: other 95 % of control | dose: 400.0 mg/kg/injection, schedule: Q01DX001 (ip), vehicle: other 96 % of control

CCCCCCCCCCCCCCCCCC(=O)N/N=C/CCc1ccccc1
inactive: [4] 87 % of control

O=C(O)c1ccc(N2C(=O)c3ccccc3C2=O)cc1[N+](=O)[O-]
inactive: [6] 103 % of control | [7] 100 % of control | [8] 108 % of control | [9] 104 % of control | [10] 107 % of control | [11] 107 % of control

CCCC(C)(C)SSC(C)(C)CCC
inactive: [4] 98 % of control | dose: 100.0 mg/kg/injection, schedule: Q04DX003 (ip), vehicle: saline with Tween-80 103 % of control | [5] 96 % of control | dose: 200.0 mg/kg/injection, schedule: Q04DX003 (ip), vehicle: saline with Tween-80 110 % of control | dose: 400.0 mg/kg/injection, schedule: Q04DX003 (ip), vehicle: saline with Tween-80 117 % of control

COC(=O)C(Cc1ccc(C)cc1)N1CCCCC1 (configuration not stated)
inactive: [3] 101 % of control | [15] 101 % of control | [16] 98 % of control

CCn1c2ccccc2c2cc(N=C3C(=O)N(C)c4ccccc43)ccc21
inactive: [3] 95 % of control | [15] 95 % of control | [16] 95 % of control

O=C(O)CCC(=O)c1cccc2ccccc12
inactive: [6] 96 % of control | [7] 105 % of control | [8] 112 % of control | [9] 94 % of control | [11] 103 % of control

O=C(c1ccccc1)c1nnc(C(=O)c2ccccc2)nn1
inactive: [12] 102 % of control | [13] 100 % of control | [14] 93 % of control

O=P(N1CCOCC1)(N1CCOCC1)N1CCOCC1
inactive: [7] 100 % of control and 112 % of control | [9] 98 % of control and 106 % of control | [11] 97 % of control and 109 % of control

CCC1CC2CCC(c3cc4c(cc3OC)N(C)C3C(O)(C(=O)OC)C(OC(C)=O)C5(CC)C=CCN6CCC43C65)c3[nH]c4ccccc4c3CCN(C1)C2 (configuration not stated)
inactive: dose: 0.8 mg/kg/injection, schedule: Q01DX001 (ip), vehicle: saline 97 % of control | dose: 1.6 mg/kg/injection, schedule: Q01DX001 (ip), vehicle: saline 97 % of control | dose: 3.2 mg/kg/injection, schedule: Q01DX001 (ip), vehicle: saline 97 % of control | dose: 6.4 mg/kg/injection, schedule: Q01DX001 (ip), vehicle: saline 100 % of control

Clc1ccc(-c2cc(=[N+]3CCOCC3)ss2)cc1
inactive: dose: 25.0 mg/kg/injection, schedule: Q01DX009 (ip), vehicle: water 101 % of control | dose: 50.0 mg/kg/injection, schedule: Q01DX009 (ip), vehicle: water 93 % of control | dose: 100.0 mg/kg/injection, schedule: Q01DX009 (ip), vehicle: water 96 % of control | dose: 200.0 mg/kg/injection, schedule: Q01DX009 (ip), vehicle: water 88 % of control

O=C(C=C(C(F)(F)F)C(F)(F)F)c1ccccc1Cl
inactive: dose: 12.5 mg/kg/injection, schedule: Q04DX003 (ip), vehicle: saline with Tween-80 97 % of control | dose: 25.0 mg/kg/injection, schedule: Q04DX003 (ip), vehicle: saline with Tween-80 86 % of control | dose: 50.0 mg/kg/injection, schedule: Q04DX003 (ip), vehicle: saline with Tween-80 100 % of control
